Numbers after ± are expanded uncertainties.

In general, refractive index refers to a measure of how strongly the sample bends light.

For data set [1] the following is noted: Liquid; Ebulliometric method (Recirculating still).
A short description of data set [2]: refractive index (Na D-line) (dimensionless). As to conditions: 293.15 K; 101.33 kPa; Liquid; Standard Abbe refractometry.

As to `CC(O)C(C)O` (centres undefined) [2,3-butanediol], the Normal boiling temperature in data set [1] was 181.06 ± 0.2 °C. The refractive index in data set [2] is recorded as 1.4375 ± 0.0007.

For `CCCCOC(C)=O` [butyl ethanoate], the Normal boiling temperature in data set [1] came out at 125.96 ± 0.2 °C. Moreover, the refractive index in data set [2] came to 1.3941 ± 0.0007.

The values are drawn from the NIST ThermoML archive (doi:10.1021/je700705d).
